Where a name gives a salt, the structure may show the parent alone.
Assays:
[1] = comparative forced degradation of bupropion HCl and HBr API salts, closed bottle, 40° C./75% RH; assay type: physicochemical
Method: These studies were performed in closed bottles in a stability chamber kept at about 40 degrees C. and about 75% relative humidity. At specified times, the material in the bottles was analyzed for the presence of degradation products and % potency (% assay).
The samples were exposed to the above conditions in a closed bottle for few days, and then subjected to HPLC analysis.
The amount of the main degradation products present after treatment were compared with those amounts that were present initially.
The samples were analyzed after 14 and 24 days (study-1) and 10 days (study II), in a quantitative manner by direct treatment of the whole content of the bottle as per the HPLC standard test method (P05.901.10).

[2] = test system: Rj: Wistar (Han) rats; test: EEG trace monitoring and behavioural observations in conscious rats
Method: The effects of the two bupropion salt forms hydrochloride and hydrobromide on central nervous system activity after intraperitoneal administration were evaluated by means of EEG trace monitoring in conscious rats. The method which detects electroencephalographic activity in conscious rats follows that described by Dürmüller et al., (2000) Vigilance-Controlled Quantified EEG in Safety Pharmacology, Current Protocols in Pharmacology Unit 10.6. The study was conducted at Porsolt & Partners Pharmacology, Research Laboratory, Z. A. des Suhards—B.P. 9, 53940 Le Genest-Saint-Isle, France.
Substances: The formulation excipient used was physiological saline (Laboratoire Aguettant). […] All substances were stored in a dry, dark, controlled access area and maintained at a controlled ambient temperature of about 20±3° C. The vehicle solutions were stored at about +4° C. The substances were administered in a volume of 5 ml/kg body weight. The doses of bupropion hydrochloride are expressed in mg/kg of salt. […] The substances were dissolved in physiological saline and prepared freshly at each day of experimentation.
Test systems: The rats used were male Rj: Wistar (Han) rats, weighing from about 280 g to 324 g at the time of implantation. They were supplied by Elevage Janvier, 53940 Le Genest-Saint-Isle, France. […] Upon delivery to the laboratory, the animals were housed in groups of 5 animals maximum, in macrolon cages (44×28×19 cm) containing wood litter (Litalabo—SPPS, 95100 Argenteuil, France). The animals had free access to food (Code 113—SAFE, 89290 Augy, France) and tap water. The animal house was maintained under artificial lighting (12 hrs) from 7:00 to 19:00 in a controlled ambient temperature of about 21±3° C. and relative humidity maintained at from about 30% to about 80%. […] Except during the test sessions, the animals had free access to food (Code 113) and tap water. The animals were identified by marking the connector fixed on the animal's head with an indelible pen. Rats were sacrificed at the end of the experiments by lethal injection of pentobarbital (>100 mg/kg i.p.). Animals were not submitted to necropsy. There is no reason to expect that contaminants were present in the feed, water or bedding at levels capable of interfering with the results of the tests. No checks were performed for this particular study.
Electrode implantation procedure: Implantation surgery was carried out under aseptic conditions. Rats, anesthetized with sodium pentobarbital (60 mg/kg i.p., plus supplementary doses of from about 5 mg/kg to about 10 mg/kg to maintain anesthesia until surgery completion) were implanted with 2 surface EEG electrodes, comprised of miniature titanium screws, placed bilaterally over the frontal-parietal cortex and 2 depth electrodes, comprised of twisted platinium-iridium wires, placed stereotaxically into the hippocampus CA3 area (Paxinos and Watson coordinates interaural: AP+5.0 mm, L±2.5 mm, V+7.0 mm). An additional screw, placed over the right occipital cortex, served as ground electrode. The electrodes were connected to small plugs and the whole assembly was secured on the skull with dental acrylate.
Apparatus: For the EEG recording, the animals were placed in rectangular Plexiglas cubicles (30×10×25 cm) mounted on treadmills. Five recording units were run in parallel. A turning commutator was attached above the centre of each cubicle, about 30 cm above walking level. On one side, it was connected via an electrically shielded multicore cable to the animal and on the other side to the signal conditioning system (Coulbourn Model V75-01). The system filters were set for all channels to high pass 1 Hz and low pass 150 Hz, respectively. The amplification levels were kept at from 1000× to 10000×. The EEG signals were acquired and processed on a PC (DELL GX620-2800) installed with a 16 channel 200 kHz/12-bit AD acquisition card (NI PCI-6023E).

[3] = two batches of each API, 10 days

CC(NC(C)(C)C)C(=O)c1cccc(Cl)c1 (stereo not shown) [Bupropion HCl, bupropion hydrochloride]
assay value, HCl versus HBr [1, 3]: lower than that for the HBr salt

Br.CC(NC(C)(C)C)C(=O)c1cccc(Cl)c1 (stereo not shown) [bupropion hydrobromide]
resulting degradation products, HBr versus HCl ([1]; 14 and 24 days (study-1)): either similar or better for the HBr salt
level of bupropion degradation impurities, HBr versus HCl [1, 3]: lower than bupropion HCl
abnormal behavior ([2]; 60 mg/kg i.p.): One rat in the bupropion hydrobromide group had a fatal whole body clonus immediately after administration
EEG ANALYSIS Burst cx ([2]; rat, in vivo, ip, 10 mg/kg): −
EEG ANALYSIS Burst hipp ([2]; rat, in vivo, ip, 10 mg/kg): −
EEG ANALYSIS Complex spike cx ([2]; rat, in vivo, ip, 10 mg/kg): −
EEG ANALYSIS Complex spike hipp ([2]; rat, in vivo, ip, 10 mg/kg): −
EEG ANALYSIS High amplitude fast frequency cx ([2]; rat, in vivo, ip, 10 mg/kg): −
EEG ANALYSIS High amplitude fast frequency hipp ([2]; rat, in vivo, ip, 10 mg/kg): −
EEG ANALYSIS High frequency burst activity cx ([2]; rat, in vivo, ip, 10 mg/kg): −
EEG ANALYSIS High frequency burst activity hipp ([2]; rat, in vivo, ip, 10 mg/kg): −
EEG ANALYSIS Long seizure activity cx ([2]; rat, in vivo, ip, 10 mg/kg): −
EEG ANALYSIS Long seizure activity hipp ([2]; rat, in vivo, ip, 10 mg/kg): −
EEG ANALYSIS Post ictual activity cx ([2]; rat, in vivo, ip, 10 mg/kg): −
EEG ANALYSIS Post ictual activity hipp ([2]; rat, in vivo, ip, 10 mg/kg): −
EEG ANALYSIS Repetitive isolated spike cx ([2]; rat, in vivo, ip, 10 mg/kg): −
EEG ANALYSIS Repetitive isolated spike hipp ([2]; rat, in vivo, ip, 10 mg/kg): −
EEG ANALYSIS Sharp waves hipp ([2]; rat, in vivo, ip, 10 mg/kg): −
EEG ANALYSIS Short seizure activity cx ([2]; rat, in vivo, ip, 10 mg/kg): −
EEG ANALYSIS Short seizure activity hipp ([2]; rat, in vivo, ip, 10 mg/kg): −
EEG ANALYSIS Spike-and-waves cx ([2]; rat, in vivo, ip, 10 mg/kg): −
EEG ANALYSIS Spike-and-waves hipp ([2]; rat, in vivo, ip, 10 mg/kg): −
EEG ANALYSIS Sharp waves cx ([2]; rat, in vivo, ip, 30 mg/kg): −
EEG ANALYSIS Sharp waves hipp ([2]; rat, in vivo, ip, 30 mg/kg): −
EEG ANALYSIS Spike-and-waves hipp ([2]; rat, in vivo, ip, 30 mg/kg): −
EEG ANALYSIS Sharp waves cx ([2]; rat, in vivo, ip, 60 mg/kg): −
EEG ANALYSIS Sharp waves hipp ([2]; rat, in vivo, ip, 60 mg/kg): −
EEG ANALYSIS Spike-and-waves cx ([2]; rat, in vivo, ip, 60 mg/kg): −
EEG ANALYSIS Spike-and-waves hipp ([2]; rat, in vivo, ip, 60 mg/kg): −
EEG ANALYSIS Sharp waves cx ([2]; rat, in vivo, ip, 100 mg/kg): −
EEG ANALYSIS Sharp waves hipp ([2]; rat, in vivo, ip, 100 mg/kg): −
EEG ANALYSIS Spike-and-waves cx ([2]; rat, in vivo, ip, 100 mg/kg): −
EEG ANALYSIS Spike-and-waves hipp ([2]; rat, in vivo, ip, 100 mg/kg): −

Reference: US7645802B2 (Biovail Laboratories International SRL., priority 2005, dated 2010)
